Test results as given in publication PMC5515982, “Hair analysis for the biomonitoring of pesticide exposure: comparison with blood and urine in a rat model” (Archives of Toxicology, 2016).
Values joined by “and” are separate entries in the source; they are usually repeats but may differ in a detail not shown here. Identical values can stand only once.

Experiments:
[1] = Concentration of pesticides and metabolites in plasma of rats after 90-day gavage exposure to a pesticide mixture; assay type: in vivo, rat; conditions: for Slope (linear fit), concentration in plasma versus level of exposure: exposure expressed as mg/kg per day, concentration as ng/mL, detected values only
Description: (§1) Eight rats were randomly assigned to each of the experimental groups. A low-calorie water gel that contained the pesticides was administered via gavage to these rats three times per week for 90 days. The doses of the pesticides mixture used for exposure were 4, 10, 20, 40, 100, 200, and 400 µg/kg of body weight. The exposure range was set as follows: The lowest dose was the lowest level allowing the detection of pesticides in hair after a 90-day exposure, based on preliminary experiments not detailed here. Testing lower levels would not have been relevant because some compounds would not be detected anymore (analytical limitation). In addition, for some other compounds, no differences were detected in the current experiment between the lowest level of exposure and the background exposure of the controls. The highest dose was set according to toxicity of compounds, which corresponded to 1/20 of the lowest LD50 (carbofuran). The animals were weighed before each administration in order to adapt the amount of pesticide-containing mixture to the animals’ weight.
(§2) The animals were shaved before the experiment began to ensure that the hair collected at the end of the study accurately reflected the 90-day period of exposure. White and black hairs were collected separately, placed in aluminum foil, and stored at −20 °C until analysis. Blood was collected in EDTA tube from the tail vein, 3 h after oral administration on Day 90. Each sampling (500–750 µL) was immediately centrifuged at 5000×g for 3 min at room temperature, and plasma was separated and stored at −80 °C before analysis. For urine collection, the rats were placed in individual metabolic cages (Type 304 stainless steel, Techniplast, Zwaag, Netherlands) immediately after gavage for 24 h (from Day 88 to Day 89). The urine was collected in refrigerated tubes over a 24-h period and was weighed before storage at −20 °C.
(§3) Depending on the compounds, only parent pesticides, only metabolites, or both parent and metabolites were analyzed in the biological matrices. The chemicals were analyzed as previously described (Chata et al. [2016]; Hardy et al. [2015]). Despite the different nature of the biological matrices analyzed (liquid vs. solid), method protocols were developed to ensure similarity so they could be reliably compared to the information obtained from each matrix, thereby ensuring that differences were not likely attributable to analytical bias. […] Because analytical background noise was absent from the chromatograms because tandem mass spectrometry was used, the approaches based on background noise for determining the limit of detection (LOD) were not applicable. The LOD was therefore determined as the lowest concentration that was detected in the samples analyzed during this study. Selectivity was ensured by analyte retention time and by the quantification transition to confirmation transition ratio that had to be lower than the 20% difference from the ratio obtained with standard compounds. The LOD ranged from 0.02 pg/mg for β-endosulfan to 2.7 pg/mg for dichlorodiphenyltrichloroethane (p,p′-DDT) in hair, from 0.2 pg/mL for trifluralin to 13.6 ng/mL for 2-isopropoxyphenol (2-IPP) in urine, and from 2.4 pg/mL for β-endosulfan to 679 pg/mL for p,p′-DDT in plasma. Because the analysis of parent pesticides and metabolites was conducted on the same hair sample, the addition of parent organophosphate isotope-labeled analog standards was not possible because their degradation into non-labeled dialkyl phosphate (DAP) during the analytical procedure would have hindered the analysis of DAP due to exposure. In hair, only organophosphate metabolites (not parents) were therefore quantified, and only qualitative results were obtained for parents.
(§4) The association between the level of exposure and the analyte concentration in the matrix (i.e., hair, urine, and plasma) was assessed by the Pearson product-moment correlation coefficient (R Pearson). […]

[2] = ref Timchalk et al. [2007], cited from earlier work
[3] = Influence of hair pigmentation: concentration in white hair versus pigmented hair; assay type: in vivo, rat; conditions: slope close to 1 = poor influence of pigmentation
Description: as §2
The influence of hair pigmentation on pesticide incorporation was assessed by comparing the concentration detected in white hair versus pigmented hair which were collected and analyzed separately from each animal. […] For the majority of the chemicals tested during the current study, pigmentation seemed to have a very limited effect on the concentration in hair, and only few compounds seemed to be pigmentation sensitive.

[4] = Concentration of pesticides and metabolites in hair of rats after 90-day gavage exposure to a pesticide mixture; assay type: in vivo, rat; conditions: exposure expressed as mg/kg per day, concentration as pg/mg, detected values only
Description: as §1, §2, §3, §4

[5] = Concentration of pesticides and metabolites in 24-h urine of rats after 90-day gavage exposure to a pesticide mixture; assay type: in vivo, rat; conditions: for Slope (linear fit), concentration in urine versus level of exposure: exposure expressed as mg/kg per day, concentration as ng/mL, detected values only
Description: as §1, §2, §3, §4

| SMILES | Mean concentration in plasma ([1]; control group) | Mean concentration in plasma ([1]; most exposed group) | Slope (linear fit), concentration in plasma versus level of exposure [1] | Metabolization of the parent compound [2] | Slope, concentration in white hair versus pigmented hair [3] | Slope (linear fit), concentration in hair versus level of exposure [4] | Half-life for α-phase in rat blood ([2]; after oral dosing of chlorpyrifos) | Slope (linear fit), concentration in urine versus level of exposure [5] | Concentration in urine, single point out of scale ([5]; dosage of 200 µg/kg, one animal, not presented in Fig. 1) |
| --- | --- | --- | --- | --- | --- | --- | --- | --- | --- |
| CCOP(=S)(OCC)Oc1nc(Cl)c(Cl)cc1Cl [Chlorpyrifos] | 0.15 ± 0.01 ng/mL | 0.41 ± 0.09 ng/mL | 1.24 | 0.2 h | – | – | – | – | – |
| CCOP(=O)(O)OCC [DEP, diethyl phosphate] | – | – | – | – | 0.892 | 4.54 | 12 min | 2.0 E + 06 | – |
| Cl[C@H]1[C@H](Cl)[C@@H](Cl)[C@H](Cl)[C@@H](Cl)[C@@H]1Cl [β-HCH, β-hexachlorocyclohexane] | – | – | 199 | – | 1.021 | 612 and 612.6 | – | 6 297 | – |
| Cl[C@H]1[C@H](Cl)[C@@H](Cl)[C@@H](Cl)[C@H](Cl)[C@H]1Cl [γ-HCH, γ-hexachlorocyclohexane] | – | – | 47.2 | – | 0.969 | 119.8 | – | 5 715 | 9 ng/mL |
